Assays:
[1] = system: phosphorylated MAPK (p-MAPK); experiment: Immunoblot analysis of phosphorylated versus total MAPK in BT-474 cells; type: cell-based, human; settings: 48 h, 20 μg/ml trastuzumab, 1 μM gefitinib, 20 μM U0126 or 20 μM LY294002
Procedure: (§1) BT-474 cells were co-transfected in parallel with the ERE(5x)-regulated and TATA dual-luciferase reporter gene sets along with the indicated expression plasmids. […] In panel (B), the cells were incubated for 48 h in estrogen-free medium supplemented with dimethyl sulfoxide as the drug vehicle control, 20 μM U0126 (MEK inhibitor), or 20 μM LY294002 (PI3K inhibitor) as indicated. After incubation for 48 h, the cells were harvested for dual-luciferase assays. Data were analyzed as described in the legend to FIG. 2. (C) Immunoblot analysis of protein extracts (20 μg per sample) prepared from BT-474 cells treated as in panels A and B above for luciferase activity. The membrane was probed with antibodies that react specifically with ERRα. Reactive proteins were visualized by enhanced chemiluminescence and autoradiography. (D) Immunoblot analysis as in panel C above, only the membrane was probed with antibodies that react specifically with phosphorylated Akt (p-Akt), total Akt, phosphorylated MAPK (p-MAPK) or total MAPK.
(§2) Proteins were extracted in Cell Lysis Buffer (Cell Signaling Technology, Beverly, Mass.) supplemented with Protease Inhibitor Cocktail Set III and Phosphatase Inhibitor Cocktail Set II (Calbiochem). Protein amounts were quantified with Coomassie Protein Assay Reagent (Pierce Biotechnology) with BSA as the standard. […] In FIG. 5D, the membrane was probed sequentially with p44/42 MAPK polyclonal antibody, phospho-specific p44/42 MAPK (Thr202/Tyr204) monoclonal antibody E10, Akt polyclonal antibody, and phospho-specific Akt (Ser473) polyclonal antibody (Cell Signaling Technology). Reacting material was detected using horseradish peroxidase-conjugated secondary antibodies (Jackson ImmunoResearch Laboratories, West Grove, Pa.) together with enhanced chemiluminescence (Amersham Pharmacia) and autoradiography.

[2] = system: phosphorylated Akt (p-Akt); experiment: Immunoblot analysis of phosphorylated versus total Akt in BT-474 cells; type: cell-based, human; settings: 48 h, 20 μg/ml trastuzumab, 1 μM gefitinib, 20 μM U0126 or 20 μM LY294002
Procedure: as §1, §2

ERRα = experiment: Immunoblot analysis of ERRα expression in ERRα-transfected BT-474 cells; type: cell-based, human; settings: BT-474 cells transfected with ERRα, 48 h; 20 μg/ml trastuzumab, 1 μM gefitinib, 20 μM U0126 or 20 μM LY294002
Procedure: as §1, §2

[3] = system: PHAS-1 (phosphorylated heat and acid-stable protein regulated by insulin)
[4] = system: GST-β-globin 1-123 fusion protein [GST: P08515]
[5] = target: T1, GST-ERRα1 1-376 (truncated GST-ERRα1 fusion protein) (UniProt P11474)
T1 sequence: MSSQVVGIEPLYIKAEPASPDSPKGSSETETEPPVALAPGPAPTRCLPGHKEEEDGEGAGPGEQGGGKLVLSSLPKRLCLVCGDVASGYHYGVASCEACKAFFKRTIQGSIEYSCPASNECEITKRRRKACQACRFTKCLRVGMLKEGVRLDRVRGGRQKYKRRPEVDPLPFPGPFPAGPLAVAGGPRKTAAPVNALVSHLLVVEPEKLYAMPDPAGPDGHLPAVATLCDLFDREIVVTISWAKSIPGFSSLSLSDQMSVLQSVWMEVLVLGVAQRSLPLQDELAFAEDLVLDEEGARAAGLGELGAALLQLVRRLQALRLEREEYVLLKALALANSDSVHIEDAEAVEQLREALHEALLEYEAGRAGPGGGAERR

[6] = target: T2, GST-ERRα1 1-173 (truncated GST-ERRα1 fusion protein) (UniProt P11474)
T2 sequence: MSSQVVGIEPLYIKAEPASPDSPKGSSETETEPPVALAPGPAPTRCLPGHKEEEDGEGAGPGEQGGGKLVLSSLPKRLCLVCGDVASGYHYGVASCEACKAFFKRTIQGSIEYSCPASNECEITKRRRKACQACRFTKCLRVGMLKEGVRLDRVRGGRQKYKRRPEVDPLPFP

[7] = target: T3, GST-ERRα1 1-423 (full-length GST-ERRα1 fusion protein) (UniProt P11474)
T3 sequence: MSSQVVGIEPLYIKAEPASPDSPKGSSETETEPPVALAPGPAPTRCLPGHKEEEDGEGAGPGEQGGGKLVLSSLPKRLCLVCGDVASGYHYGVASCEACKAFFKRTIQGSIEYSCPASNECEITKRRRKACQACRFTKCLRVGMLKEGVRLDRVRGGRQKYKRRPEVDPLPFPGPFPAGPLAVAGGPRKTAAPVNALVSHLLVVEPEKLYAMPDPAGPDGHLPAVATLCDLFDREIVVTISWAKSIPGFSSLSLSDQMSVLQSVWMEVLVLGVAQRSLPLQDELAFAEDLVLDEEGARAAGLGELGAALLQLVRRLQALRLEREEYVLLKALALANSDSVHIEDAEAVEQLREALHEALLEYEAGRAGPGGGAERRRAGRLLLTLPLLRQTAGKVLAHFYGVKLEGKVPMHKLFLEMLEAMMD

[8] = system: ERRα1-mediated constitutive activation of ERE-regulated transcription in BT-474 cells; experiment: Transient transfection dual-luciferase assay of ERRα1-mediated ERE-regulated transcription in BT-474 cells; type: cell-based, human
Procedure: as §1

[9] = system: ER-stimulated ERE-regulated transcription in MCF-7 cells; experiment: Transient transfection dual-luciferase assay of ERE-regulated transcription in MCF-7 cells; type: cell-based, human; settings: 100 pM E2, 48 h, estrogen-free medium, ER-positive MCF-7 cells
Procedure: (A) MCF-7 and (B) BT-474 cells were co-transfected in parallel with the ERE(5×)-regulated and TATA dual-luciferase reporter gene sets along with ERRα1, ERRα1L413A/L418A, GRIP1 (glucocorticoid receptor interacting protein 1, SRC2) or empty parental expression plasmids as indicated. Transfected cells were incubated for 48 h in estrogen-free medium supplemented with ethanol, the solvent for the ligands, 100 pM E2, or 100 pM E2 plus 100 nM fulvestrant (ICI 182,780, faslodex) prior to being harvested for dual-luciferase assays. The results shown here are means±standard deviations from data obtained in one representative experiment performed in triplicate.
Plasmids pERE(5x)-ffLuc and pTATA-ffLuc, encoding firefly luciferase, and plasmid pTATA-srLuc, encoding renilla luciferase, were used as matched dual-luciferase reporter sets to assay ERE-regulated versus basal transcription along with an internal control. They were constructed by insertion via HindIII linkers of the nts −31 to +31 region of the herpes simplex virus thymidine kinase (HSV-TK) promoter into pGL3-Basic and phRG-B (Promega, Madison, Wis.), respectively. Plasmid pERE(5x)-ffLuc, containing five tandem copies of the consensus palindromic ERE, was then constructed by insertion into pTATA-fELuc of the oligodeoxynucleotides 5′-tcgag[…]gag[…]ctc[…] GACCTCTgcg[…]gcg[…]a-3′ (SEQ ID NO:1) and 5′-gatct[…]cgc[…]cgc[…] […]

[10] = target: Human ERRα1 containing a C-terminal 6×His tag, expressed and purified from E. coli, P11474

Chain of GST-β-globin 1-123 fusion protein [GST: P08515] (P08515 whole entry, looked up, the tested form may be a part): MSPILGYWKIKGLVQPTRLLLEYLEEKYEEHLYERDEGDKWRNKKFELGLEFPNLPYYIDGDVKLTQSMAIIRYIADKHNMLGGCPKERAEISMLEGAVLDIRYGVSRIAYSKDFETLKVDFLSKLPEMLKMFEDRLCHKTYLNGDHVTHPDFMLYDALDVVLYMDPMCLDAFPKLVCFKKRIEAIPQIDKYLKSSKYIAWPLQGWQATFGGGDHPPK

## O=c1cc(N2CCOCC2)oc2c(-c3ccccc3)cccc12 [LY294002, 2-(4-morpholinyl)-8-phenyl-4H-1-benzopyran-4-one]
[1]
  phosphorylation of MAPK / MEK/MAPK pathway activation (immunoblot): without affecting MAPK status
[2]
  phosphorylation of Akt / PI3K/Akt pathway activation (immunoblot): inhibition of phosphorylation of Akt
ERRα
  ERRα expression (immunoblot): still expressed

## rat p42 MAPK2 (ERK2; Calbiochem) phosphorylated in vitro by a constitutively active MEK1 mutant
[3]
  in vitro phosphorylation with [γ32P]-ATP, 12% SDS-PAGE and PhosphorImager: activated MAPK efficiently phosphorylated PHAS-1, but not GST-β-globin1-123
[4]
  in vitro phosphorylation with [γ32P]-ATP, 12% SDS-PAGE and PhosphorImager: activated MAPK efficiently phosphorylated PHAS-1, but not GST-β-globin1-123
[5]
  in vitro phosphorylation with [γ32P]-ATP, 12% SDS-PAGE and PhosphorImager: MAPK phosphorylated each of the GST-ERRα1 fusion proteins, with more label being incorporated into GST-ERRα11-423 than into GST-ERRα11-376 and GST-ERRα11-173
[6]
  in vitro phosphorylation with [γ32P]-ATP, 12% SDS-PAGE and PhosphorImager: MAPK phosphorylated each of the GST-ERRα1 fusion proteins, with more label being incorporated into GST-ERRα11-423 than into GST-ERRα11-376 and GST-ERRα11-173
[7]
  in vitro phosphorylation with [γ32P]-ATP, 12% SDS-PAGE and PhosphorImager: MAPK phosphorylated each of the GST-ERRα1 fusion proteins, with more label being incorporated into GST-ERRα11-423 than into GST-ERRα11-376 and GST-ERRα11-173

## N#CC(=C(/N)Sc1ccccc1N)/C(C#N)=C(\N)Sc1ccccc1N [U0126]
[1]
  phosphorylation of MAPK / MEK/MAPK pathway activation (immunoblot): inhibition of phosphorylation of MAPK
[8]
  reduction in ERRα1's activator activity: approximately 50%
[2]
  phosphorylation of Akt / PI3K/Akt pathway activation (immunoblot): without affecting Akt status
ERRα
  ERRα expression (immunoblot): still expressed

## C[C@]12CC[C@@H]3c4ccc(O)cc4CC[C@H]3[C@@H]1CC[C@@H]2O [E2, 17β-estradiol]
[9]
  induction of ERE-regulated transcription: 19 fold

B1: Human Akt1 containing an N-terminal 6×His tag, lacking amino acids 1-117 (Pleckstrin Homology domain), serine 473 mutated to aspartic acid (protein)
chain: HHHHHHMDFRSGSPSDNSGAEEMEVSLAKPKHRVTMNEFEYLKLLGKGTFGKVILVKEKATGRYYAMKILKKEVIVAKDEVAHTLTENRVLQNSRHPFLTALKYSFQTHDRLCFVMEYANGGELFFHLSRERVFSEDRARFYGAEIVSALDYLHSEKNVVYRDLKLENLMLDKDGHIKITDFGLCKEGIKDGATMKTFCGTPEYLAPEVLEDNDYGRAVDWWGLGVVMYEMMCGRLPFYNQDHEKLFELILMEEIRFPRTLGPEAKSLLSGLLKKDPKQRLGGGSEDAKEIMQHRFFAGIVWQHVYEKKLSPPFKPQVTSETDTRYFDEEFTAQMITITPPDQDDSMECVDSERRPHFPQFDYSASGTA
[10]
  in vitro phosphorylation with [γ-32P]-ATP, SDS-(4-12%) PAGE and autoradiography: Each of the kinases tested was capable of phosphorylating ERRα in vitro

B2: Human Akt2 containing an N-terminal 6×His tag, lacking amino acids 1-117 (Pleckstrin Homology domain), serine 474 mutated to aspartic acid (protein)
chain: HHHHHHDPMDYKCGSPSDSSTTEEMEVAVSKARAKVTMNDFDYLKLLGKGTFGKVILVREKATGRYYAMKILRKEVIIAKDEVAHTVTESRVLQNTRHPFLTALKYAFQTHDRLCFVMEYANGGELFFHLSRERVFTEERARFYGAEIVSALEYLHSRDVVYRDIKLENLMLDKDGHIKITDFGLCKEGISDGATMKTFCGTPEYLAPEVLEDNDYGRAVDWWGLGVVMYEMMCGRLPFYNQDHERLFELILMEEIRFPRTLSPEAKSLLAGLLKKDPKQRLGGGPSDAKEVMEHRFFLSINWQDVVQKKLLPPFKPQVTSEVDTRYFDDEFTAQSITITPPDRYDSLGLLELDQRTHFPQFDYSASIRE
[10]
  in vitro phosphorylation with [γ-32P]-ATP, SDS-(4-12%) PAGE and autoradiography: Each of the kinases tested was capable of phosphorylating ERRα in vitro

B3: Human MAPK1 containing an N-terminal GST tag, activated with MEK1 (protein)
chain: MAAAAAQGGGGGEPRRTEGVGPGVPGEVEMVKGQPFDVGPRYTQLQYIGEGAYGMVSSAYDHVRKTRVAIKKISPFEHQTYCQRTLREIQILLRFRHENVIGIRDILRASTLEAMRDVYIVQDLMETDLYKLLKSQQLSNDHICYFLYQILRGLKYIHSANVLHRDLKPSNLLINTTCDLKICDFGLARIADPEHDHTGFLTEYVATRWYRAPEIMLNSKGYTKSIDIWSVGCILAEMLSNRPIFPGKHYLDQLNHILGILGSPSQEDLNCIINMKARNYLQSLPSKTKVAWAKLFPKSDSKALDLLDRMLTFNPNKRITVEEALAHPYLEQYYDPTDEPVAEEPFTFAMELDDLPKERLKELIFQETARFQPGVLEAP
[10]
  in vitro phosphorylation with [γ-32P]-ATP, SDS-(4-12%) PAGE and autoradiography: Each of the kinases tested was capable of phosphorylating ERRα in vitro

— patent US20050118658A1, “Use of ERRalpha phosphorylation status as a breast cancer biomarker” (priority 2003, published 2005)
